What was measured:
Experiment in all cases: Post-emergence test, weed control effect
Format in all cases: in vivo
Conditions in all cases: after 3 weeks
Amaranthus retroflexus = system: Amaranthus retroflexus
From the text: (§1) The activity level standard of harmful plant destruction (i.e. growth inhibition rate) is as follows: • Level 10: completely dead; • Level 9: above 90% growth inhibition rate; • Level 8: above 80% growth inhibition rate; • Level 7: above 70% growth inhibition rate; • Level 6: above 60% growth inhibition rate; • Level 5: above 50% growth inhibition rate; • Level 4: above 40% growth inhibition rate; • Level 3: above 30% growth inhibition rate; • Level 2: above 20% growth inhibition rate; • Level 1: below 20% growth inhibition rate; • Level 0: no effect.
(§2) The above described growth inhibition rates are fresh weight inhibition rates.
(§3) Experiment of post-emergence test: monocotyledonous and dicotyledonous weed seeds as well as main crop seeds (i.e., wheat, corn, rice, soybean, cotton, oilseed rape, millet and sorghum) were put into a plastic pot loaded with soil, then covered with 0.5-2 cm of soil, and the seeds were allowed to grow in good greenhouse environment. The test plants were treated at 2-3 leaf stage 2-3 weeks after sowing. The test compounds of the invention were dissolved in acetone respectively, then added with Tween-80 and diluted by a certain amount of water to give solutions with certain concentrations, and added with 80% vegetable oil methyl ester synergist at 1500 g/ha. The solution was sprayed to the plants with a sprayer. The plants were cultured for 3 weeks in the greenhouse.

Chenopodiaceae = system: Chenopodiaceae
From the text: as §1, §2, §3

Rorippa indica = system: Rorippa indica
From the text: as §1, §2, §3

Veronica polita = system: Veronica polita
From the text: as §1, §2, §3

O=C(Oc1cc(C(F)(F)F)nnc1-c1ccc(Cl)cc1)c1cc(Cl)nc(Cl)n1 [Compound 1-111]
10: weed control effect, Amaranthus retroflexus (activity level) (Amaranthus retroflexus; Dose 3000 g/ha) | weed control effect, Chenopodiaceae (activity level) (Chenopodiaceae; Dose 3000 g/ha) | weed control effect, Rorippa indica (activity level) (Rorippa indica; Dose 3000 g/ha) | weed control effect, Veronica polita (activity level) (Veronica polita; Dose 3000 g/ha)

CCCCCCCSC(=O)Oc1cc(C(F)(F)F)nnc1-c1ccc(Cl)c(Cl)c1 [Compound 1-53]
10: weed control effect, Amaranthus retroflexus (activity level) (Amaranthus retroflexus; Dose 3000 g/ha) | weed control effect, Chenopodiaceae (activity level) (Chenopodiaceae; Dose 3000 g/ha) | weed control effect, Rorippa indica (activity level) (Rorippa indica; Dose 3000 g/ha) | weed control effect, Veronica polita (activity level) (Veronica polita; Dose 3000 g/ha)

O=S(=O)(Oc1cc(C(F)(F)F)nnc1-c1ccc(C(F)(F)F)cc1)c1cccc2ccccc12 [Compound 1-144]
10: weed control effect, Amaranthus retroflexus (activity level) (Amaranthus retroflexus; Dose 3000 g/ha) | weed control effect, Chenopodiaceae (activity level) (Chenopodiaceae; Dose 3000 g/ha) | weed control effect, Rorippa indica (activity level) (Rorippa indica; Dose 3000 g/ha) | weed control effect, Veronica polita (activity level) (Veronica polita; Dose 3000 g/ha)

CCCCCOC(=O)Oc1cc(C(F)(F)F)nnc1-c1ccc(F)c(F)c1 [Compound 1-31]
10: weed control effect, Amaranthus retroflexus (activity level) (Amaranthus retroflexus; Dose 3000 g/ha) | weed control effect, Chenopodiaceae (activity level) (Chenopodiaceae; Dose 3000 g/ha) | weed control effect, Rorippa indica (activity level) (Rorippa indica; Dose 3000 g/ha) | weed control effect, Veronica polita (activity level) (Veronica polita; Dose 3000 g/ha)

Cc1ccc(-c2nnc(C(F)(F)F)cc2O)c(C)c1 [Compound 77]
10: weed control effect (activity level), Amaranthus retroflexus (Amaranthus retroflexus; dose 2000 g/ha) | weed control effect (activity level), Chenopodiaceae (Chenopodiaceae; dose 2000 g/ha) | weed control effect (activity level), Rorippa indica (Rorippa indica; dose 2000 g/ha) | weed control effect (activity level), Veronica polita (Veronica polita; dose 2000 g/ha)

Cc1[nH]nc(-c2nnc(C(F)(F)F)cc2O)c1C [Compound 544]
10: weed control effect (activity level), Amaranthus retroflexus (Amaranthus retroflexus; Dose 3000 g/ha) | weed control effect (activity level), Chenopodiaceae (Chenopodiaceae; Dose 3000 g/ha) | weed control effect (activity level), Rorippa indica (Rorippa indica; Dose 3000 g/ha) | weed control effect (activity level), Veronica polita (Veronica polita; Dose 3000 g/ha)

C#Cc1ccc(-c2nnc(C(F)(F)F)cc2O)c(OC(C)=O)c1 [Compound 173]
10: weed control effect (activity level), Amaranthus retroflexus (Amaranthus retroflexus; dose 2000 g/ha) | weed control effect (activity level), Chenopodiaceae (Chenopodiaceae; dose 2000 g/ha) | weed control effect (activity level), Rorippa indica (Rorippa indica; dose 2000 g/ha) | weed control effect (activity level), Veronica polita (Veronica polita; dose 2000 g/ha)

CC/C(CC(C)CC)=N/Oc1cc(C(F)(F)F)nnc1-c1ccnn1C (centres unmarked) [Compound 1-179]
10: weed control effect, Amaranthus retroflexus (activity level) (Amaranthus retroflexus; Dose 3000 g/ha) | weed control effect, Chenopodiaceae (activity level) (Chenopodiaceae; Dose 3000 g/ha) | weed control effect, Rorippa indica (activity level) (Rorippa indica; Dose 3000 g/ha) | weed control effect, Veronica polita (activity level) (Veronica polita; Dose 3000 g/ha)

O=C(Oc1cc(C(F)(F)F)nnc1-c1ccc(F)c(F)c1)c1ccc2[nH]ccc2c1 [Compound 1-115]
10: weed control effect, Amaranthus retroflexus (activity level) (Amaranthus retroflexus; Dose 3000 g/ha) | weed control effect, Chenopodiaceae (activity level) (Chenopodiaceae; Dose 3000 g/ha) | weed control effect, Rorippa indica (activity level) (Rorippa indica; Dose 3000 g/ha) | weed control effect, Veronica polita (activity level) (Veronica polita; Dose 3000 g/ha)

COC(=O)CCCCC(=O)Oc1cc(C(F)(F)F)nnc1-c1ccc(F)cc1 [Compound 1-70]
10: weed control effect, Amaranthus retroflexus (activity level) (Amaranthus retroflexus; Dose 3000 g/ha) | weed control effect, Chenopodiaceae (activity level) (Chenopodiaceae; Dose 3000 g/ha) | weed control effect, Rorippa indica (activity level) (Rorippa indica; Dose 3000 g/ha) | weed control effect, Veronica polita (activity level) (Veronica polita; Dose 3000 g/ha)

O=C(Cc1ccccc1)Oc1cc(C(F)(F)F)nnc1-c1ccc(F)c(F)c1 [Compound 1-94]
10: weed control effect, Amaranthus retroflexus (activity level) (Amaranthus retroflexus; Dose 3000 g/ha) | weed control effect, Chenopodiaceae (activity level) (Chenopodiaceae; Dose 3000 g/ha) | weed control effect, Rorippa indica (activity level) (Rorippa indica; Dose 3000 g/ha) | weed control effect, Veronica polita (activity level) (Veronica polita; Dose 3000 g/ha)

CCO/C=C/C(=O)Oc1cc(C(F)(F)F)nnc1-c1cccc(F)c1 [Compound 1-75]
10: weed control effect, Amaranthus retroflexus (activity level) (Amaranthus retroflexus; Dose 3000 g/ha) | weed control effect, Chenopodiaceae (activity level) (Chenopodiaceae; Dose 3000 g/ha) | weed control effect, Rorippa indica (activity level) (Rorippa indica; Dose 3000 g/ha) | weed control effect, Veronica polita (activity level) (Veronica polita; Dose 3000 g/ha)

Cn1nc(Cl)cc1-c1nnc(C(F)(F)F)cc1O [Compound 776]
10: weed control effect (activity level), Amaranthus retroflexus (Amaranthus retroflexus; Dose 3000 g/ha) | weed control effect (activity level), Chenopodiaceae (Chenopodiaceae; Dose 3000 g/ha) | weed control effect (activity level), Rorippa indica (Rorippa indica; Dose 3000 g/ha) | weed control effect (activity level), Veronica polita (Veronica polita; Dose 3000 g/ha)

C#Cc1ccc(-c2nnc(C(F)(F)F)cc2O)nn1 [Compound 349]
10: weed control effect (activity level), Amaranthus retroflexus (Amaranthus retroflexus; dose 2000 g/ha) | weed control effect (activity level), Chenopodiaceae (Chenopodiaceae; dose 2000 g/ha) | weed control effect (activity level), Rorippa indica (Rorippa indica; dose 2000 g/ha) | weed control effect (activity level), Veronica polita (Veronica polita; dose 2000 g/ha)

Oc1cc(C(F)(F)F)nnc1-c1cc(F)cc(Br)c1 [Compound 49]
10: weed control effect (activity level), Amaranthus retroflexus (Amaranthus retroflexus; dose 1000 g/ha) | weed control effect (activity level), Chenopodiaceae (Chenopodiaceae; dose 1000 g/ha) | weed control effect (activity level), Rorippa indica (Rorippa indica; dose 1000 g/ha) | weed control effect (activity level), Veronica polita (Veronica polita; dose 1000 g/ha)

CCSc1ccc(-c2nnc(C(F)(F)F)cc2O)cn1 [Compound 236]
10: weed control effect (activity level), Amaranthus retroflexus (Amaranthus retroflexus; dose 2000 g/ha) | weed control effect (activity level), Chenopodiaceae (Chenopodiaceae; dose 2000 g/ha) | weed control effect (activity level), Rorippa indica (Rorippa indica; dose 2000 g/ha) | weed control effect (activity level), Veronica polita (Veronica polita; dose 2000 g/ha)

CSCCC(=O)Oc1cc(C(F)(F)F)nnc1-c1ccc(F)c(F)c1 [Compound 1-77]
10: weed control effect, Amaranthus retroflexus (activity level) (Amaranthus retroflexus; Dose 3000 g/ha) | weed control effect, Chenopodiaceae (activity level) (Chenopodiaceae; Dose 3000 g/ha) | weed control effect, Rorippa indica (activity level) (Rorippa indica; Dose 3000 g/ha) | weed control effect, Veronica polita (activity level) (Veronica polita; Dose 3000 g/ha)
